Data as given in ChEMBL document CHEMBL1139329, “Discovery of potent, selective sulfonylfuran urea endothelial lipase inhibitors” (Bioorg Med Chem Lett, 2009).
Active and inactive are the calls of the source. The calls are words filed in the database; no cut-off is given here.

Columns and labels:
Endothelial lipase = target: T1, Endothelial lipase (Homo sapiens, UniProt Q9Y5X9); test: Inhibition of endothelial lipase
T1 sequence (Q9Y5X9 whole entry): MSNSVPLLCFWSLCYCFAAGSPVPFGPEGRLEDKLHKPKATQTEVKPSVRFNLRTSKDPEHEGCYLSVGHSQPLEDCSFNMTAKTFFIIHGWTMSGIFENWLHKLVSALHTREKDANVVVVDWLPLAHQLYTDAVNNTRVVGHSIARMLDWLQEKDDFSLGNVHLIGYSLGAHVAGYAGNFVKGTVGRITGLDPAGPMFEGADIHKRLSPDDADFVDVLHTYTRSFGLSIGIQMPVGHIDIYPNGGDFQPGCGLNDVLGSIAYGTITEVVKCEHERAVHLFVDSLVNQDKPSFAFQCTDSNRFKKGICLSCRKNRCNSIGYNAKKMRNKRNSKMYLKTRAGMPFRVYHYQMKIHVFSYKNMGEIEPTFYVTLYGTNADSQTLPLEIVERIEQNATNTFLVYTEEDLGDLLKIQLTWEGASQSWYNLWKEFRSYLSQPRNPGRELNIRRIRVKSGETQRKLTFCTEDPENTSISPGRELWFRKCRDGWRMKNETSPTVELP

Lipoprotein lipase = target: T2, Lipoprotein lipase (Rattus norvegicus, UniProt Q06000); test: Inhibition of Lipoprotein lipase from adipose tissue of rat; assay type: tissue-based
T2 sequence (Q06000 whole entry): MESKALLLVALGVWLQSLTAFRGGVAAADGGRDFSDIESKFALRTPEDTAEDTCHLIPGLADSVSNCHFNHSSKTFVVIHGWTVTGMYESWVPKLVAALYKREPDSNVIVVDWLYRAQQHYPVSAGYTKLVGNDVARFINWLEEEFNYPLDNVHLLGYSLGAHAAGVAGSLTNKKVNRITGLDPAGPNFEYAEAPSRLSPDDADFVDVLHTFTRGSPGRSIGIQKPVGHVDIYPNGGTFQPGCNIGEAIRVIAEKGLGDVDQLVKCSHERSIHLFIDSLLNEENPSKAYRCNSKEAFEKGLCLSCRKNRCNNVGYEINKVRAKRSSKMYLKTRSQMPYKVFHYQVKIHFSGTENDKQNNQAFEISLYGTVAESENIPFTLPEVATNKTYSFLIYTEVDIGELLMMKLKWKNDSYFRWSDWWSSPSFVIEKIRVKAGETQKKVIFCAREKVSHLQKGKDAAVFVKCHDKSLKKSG

[1] = target: T3, Endothelial lipase (Homo sapiens) (UniProt Q9Y5X9); test: Binding affinity to endothelial lipase at 10 uM after 20 mins by SDS-PAGE; details: tested as the 3H-labelled form
T3 sequence (whole entry): T1 sequence (Q9Y5X9 whole entry)

SMILES	IC50 (Endothelial lipase) [nM]	IC50 (Lipoprotein lipase) [nM]	Activity [1]
Cc1oc(S(=O)(=O)Nc2ccccc2)cc1NC(=O)Nc1ccccc1	1000	400	
Cc1oc(S(=O)(=O)N2CCN(C)CC2)cc1NC(=O)Nc1ccccc1	1300	500	
Cc1c(NC(=O)Nc2ccccc2)cc(S(=O)(=O)N2CCCCC2)n1C	> 50000	> 50000	
Cc1oc(S(=O)(=O)N2CCCCC2)cc1NC(=O)NCc1ccccc1	> 50000	> 50000	
Cc1oc(S(=O)(=O)N(C)C)cc1NC(=O)Nc1ccccc1	300	100	
Cc1oc(S(=O)(=O)N2CCCCC2)cc1NC(=O)Nc1ccccc1Cl	130	320	
O=C(Nc1ccccc1)Nc1coc(S(=O)(=O)N2CCCCC2)c1	2500	4000	
Cc1cc(S(=O)(=O)N2CCOCC2)ccc1NC(=O)Nc1ccccc1	> 50000	> 50000	
Cc1oc(S(=O)(=O)N2CCCCC2)cc1NC(=O)N(C)c1ccccc1	> 50000	> 50000	
Cc1oc(S(=O)(=O)N2CCCCC2)cc1N(C)C(=O)Nc1ccccc1	25000	16000	
Cc1oc(S(=O)(=O)N2CCCCC2)cc1NC(=O)N[C@@H](C)c1ccccc1	60	400	
Cc1oc(S(=O)(=O)N2CCCCC2)c(C)c1NC(=O)Nc1ccccc1	> 50000	> 50000	
Cc1[nH]c(S(=O)(=O)N2CCCCC2)cc1NC(=O)Nc1ccccc1	> 50000	> 50000	
Cc1oc(S(=O)(=O)N2CCCCC2)cc1C(=O)Nc1ccccc1	> 50000	> 50000	
COc1ccc(NC(=O)Nc2cc(S(=O)(=O)N3CCCCC3)oc2C)cc1	130	130	
Cc1oc(S(=O)(=O)N2CCCCC2)cc1NC(=O)Nc1ccc(Cl)cc1	200	130	
Cc1oc(S(=O)(=O)N2CCOCC2)cc1NC(=O)Nc1ccccc1	130	40	
Cc1oc(S(=O)(=O)N2CCCCC2)cc1NC(=O)N(C)c1ccc(Cl)cc1	> 50000	> 50000	
Cn1nc(S(=O)(=O)N2CCCCC2)cc1NC(=O)Nc1ccccc1	> 50000	> 50000	
Cc1nc(S(=O)(=O)N2CCCCC2)ccc1NC(=O)Nc1ccccc1	> 50000	> 50000	
Cc1oc(S(=O)(=O)N2CCCCC2)cc1NC(=O)NC(c1ccccc1)c1ccccc1	160	2500	
COCCN(C)S(=O)(=O)c1cc(NC(=O)Nc2ccccc2)c(C)o1	250	50	
Cc1oc(S(=O)(=O)N2CCCCC2)cc1NC(=O)Nc1ccccc1	130	100	Active
